Read-outs that look alike come from different tables or passages of the source. Bridge positions count the residues as written; N and C are the ends. Square brackets hold non-standard residues; d marks the D form. Peptide text beside a SMILES is read from it. * marks the point of attachment. Val(Nα-amidino) = CC(C)[C@H](NC(=N)N)C(=O)*; Pro(4R-NH2) = N[C@H]1CN[C@H](C(=O)O)C1; Gly(N-2-aminoethyl) = NCCNCC(=O)O; Pen = CC(C)(S)[C@H](N)C(=O)O; dDab = NCC[C@@H](N)C(=O)O; Nle = CCCC[C@H](N)C(=O)O; Orn = NCCC[C@H](N)C(=O)O; Dab = NCC[C@H](N)C(=O)O
Legend:
[1] = test system: human red blood cells (hRBC); test: Hemolysis of human red blood cells; type: cell-based; settings: red cells of human, 1 h
In short: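 PBS-washed human red blood cells (20% v/v) were incubated with peptide at 200 μg/mL for 1 h at 37 °C with shaking. Supernatant OD was read at 540 nm after 8-fold dilution. Hemolysis is expressed as percent of the water control.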

[2] = test system: Klebsiella pneumoniae SSI3010; settings: SSI3010
In short: (§1)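 Two-fold serial dilutions of peptide, in water with polysorbate 80 (0.002% final), met bacteria adjusted to 0.5 McFarland then diluted to about 5×10^5 CFU/mL. Medium was cation-adjusted Mueller-Hinton II broth; peptide stocks were 1 mg/mL in sterile water.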

[3] = test system: Escherichia coli ATCC 25922; settings: ATCC 25922
In short: as §1

[4] = test system: Escherichia coli MCR-1 Af 45
In short: as §1

[5] = Mueller-Hinton broth II, 18-20 hours at 35° C.

| Escherichia coli MCR-1 Af 45 MIC ([4]; MCR-1 Af 45) [µg/mL] | Structure (SMILES) | Hemolysis at 0.2 g/L [1] [%] | Klebsiella pneumoniae SSI3010 MIC [2] [µg/mL] | Escherichia coli ATCC 25922 MIC [3] [µg/mL] | Escherichia coli MCR-1 Af 45 MIC [4, 5] [µg/mL] |
| --- | --- | --- | --- | --- | --- |
|  | CC[C@H](C)[C@H](NC(=O)[C@@H](NC(=O)[C@@H]1C[C@@H](O)CN1C(=O)[C@@H](N)C(C)C)[C@@H](C)CC)C(=O)N[C@@H](Cc1ccc(O)cc1)C(=O)N[C@H]1CC(=O)NCC[C@@H](C(=O)N[C@@H](CCN)C(=O)N[C@@H](CCCNC(=N)N)C(=O)N[C@@H](Cc2ccc(O)cc2)C(=O)O)NC(=O)[C@H](CCCCN)NC(=O)[C@@H](CCN)NC(=O)[C@H]([C@@H](C)O)NC(=O)[C@H](CCN)NC(=O)[C@H](CCCNC(=N)N)NC(=O)[C@H](CC(N)=O)NC1=O [Example 205] (HELM PEPTIDE1{V.[Hyp].I.I.Y.D.N.R.[Dab].T.[NCC[C@@H](N[*:1])C(=O)[*:2]].K.[Dab].[Dab].R.Y}$PEPTIDE1,PEPTIDE1,6:R3-13:R3$$$V2.0) | 0 | 0.25 | 0.125 | 0.125 |
| 0.0625 | CC[C@H](C)[C@H](NC(=O)[C@@H](NC(=O)[C@@H]1CCCN1C(=O)[C@@H](NC(=O)CCNC(=O)[C@H](CCCNC(=N)N)NC(=O)[C@@H](N)CCCCN)C(C)C)[C@@H](C)CC)C(=O)N[C@@H](Cc1ccc(O)cc1)C(=O)N[C@@H]1C(=O)N[C@@H](CC(N)=O)C(=O)N[C@@H](CCCNC(=N)N)C(=O)N[C@@H](CCN)C(=O)N[C@@H]([C@@H](C)O)C(=O)N[C@H](CCN)C(=O)N[C@@H](CCCCN)C(=O)N[C@H](C(=O)N[C@@H](CCN)C(=O)N[C@@H](CCCNC(=N)N)C(=O)N[C@@H](Cc2ccc(O)cc2)C(=O)O)CSSC1(C)C [Example 85, Lys-Arg-betaGly-Val-Pro-Ile-Ile-Tyr-Pen-Asn-Arg-Dab-Thr-^DDab-Lys-Cys-Dab-Arg-Tyr] (HELM PEPTIDE1{K.R.[bAla].V.P.I.I.Y.[Pen].N.R.[Dab].T.[NCC[C@@H](N[*:1])C(=O)[*:2]].K.C.[Dab].R.Y}$PEPTIDE1,PEPTIDE1,9:R3-16:R3$$$V2.0) | 0 | 0.125 | 0.0625 |  |
| 0.125 | CCCC[C@H](NC(=O)[C@H](CCCNC(=N)N)NC(=O)[C@H](CCCN)NC(=O)[C@@H]1CSSC(C)(C)[C@H](NC(=O)[C@H](Cc2ccc(O)cc2)NC(=O)[C@@H](NC(=O)[C@@H](NC(=O)CN(CCN)C(=O)[C@@H](NC(=O)CNCCN)C(C)C)[C@@H](C)CC)[C@@H](C)CC)C(=O)N[C@@H](CC(N)=O)C(=O)N[C@@H](CCCNC(=N)N)C(=O)N[C@@H](CCN)C(=O)N[C@@H]([C@@H](C)O)C(=O)N[C@H](CCN)C(=O)N[C@@H](CCCN)C(=O)N1)C(=O)O [Example 16, Ndab-Val-Ndab-Ile-Ile-Tyr-Pen-Asn-Arg-Dab-Thr-^DDab-Orn-Cys-Orn-Arg-Nle] (H-[Gly(N-2-aminoethyl)]V[Gly(N-2-aminoethyl)]IIY[Pen]NR[Dab]T[dDab][Orn]C[Orn]R[Nle]-OH; disulfide 7-14) | 0 | 0.25 | 0.125 |  |
|  | CC[C@H](C)[C@H](NC(=O)[C@@H]1C[C@@H](O)CN1C(=O)[C@@H](NC)C(C)C)C(=O)N[C@H](C(=O)N[C@@H](Cc1ccc(O)cc1)C(=O)N[C@@H]1C(=O)N[C@@H](CC(N)=O)C(=O)N[C@@H](CCCNC(=N)N)C(=O)N[C@@H](CCN)C(=O)N[C@@H]([C@@H](C)O)C(=O)N[C@H](CCN)C(=O)N[C@@H](CCCCN)C(=O)N[C@H](C(=O)N[C@@H](CCN)C(=O)N[C@@H](CCCNC(=N)N)C(=O)N[C@@H](Cc2ccc(O)cc2)C(=O)O)CSSC1(C)C)[C@@H](C)O [Example 181] (HELM PEPTIDE1{[meV].[Hyp].I.T.Y.[Pen].N.R.[Dab].T.[NCC[C@@H](N[*:1])C(=O)[*:2]].K.C.[Dab].R.Y}$PEPTIDE1,PEPTIDE1,6:R3-13:R3$$$V2.0) | 0 | 0.25 | 0.125 | 0.125 |
| 0.125 | CC[C@H](C)[C@H](NC(=O)[C@@H](NC(=O)[C@@H]1CCCN1C(=O)[C@@H](NC(=O)[C@@H]1C[C@@H](N)CN1)C(C)C)[C@@H](C)CC)C(=O)N[C@@H](Cc1ccc(O)cc1)C(=O)N[C@@H]1C(=O)N[C@@H](CC(N)=O)C(=O)N[C@@H](CCCNC(=N)N)C(=O)N[C@@H](CCN)C(=O)N[C@@H]([C@@H](C)O)C(=O)N[C@H](CCN)C(=O)N[C@@H](CCCCN)C(=O)N[C@H](C(=O)N[C@@H](CCN)C(=O)N[C@@H](CCCNC(=N)N)C(=O)N[C@@H](Cc2ccc(O)cc2)C(=O)O)CSSC1(C)C [Example 24, Pro(4R)NH2)-Val-Pro-Ile-Ile-Tyr-Pen-Asn-Arg-Dab-Thr-^DDab-Lys-Cys-Dab-Arg-Tyr] (HELM PEPTIDE1{[N[C@H]1CN[C@H](C(=O)[*:2])C1].V.P.I.I.Y.[Pen].N.R.[Dab].T.[NCC[C@@H](N[*:1])C(=O)[*:2]].K.C.[Dab].R.Y}$PEPTIDE1,PEPTIDE1,7:R3-14:R3$$$V2.0) | 0 | 0.25 | 0.125 |  |
|  | CC[C@H](C)[C@H](NC(=O)[C@@H](NC(=O)[C@@H]1C[C@@H](N)CN1C(=O)[C@@H](NC(=N)N)C(C)C)[C@@H](C)CC)C(=O)N[C@@H](Cc1ccc(O)cc1)C(=O)N[C@@H]1C(=O)N[C@@H](CC(N)=O)C(=O)N[C@@H](CCCNC(=N)N)C(=O)N[C@@H](CCN)C(=O)N[C@@H]([C@@H](C)O)C(=O)N[C@H](CCN)C(=O)N[C@@H](CCCCN)C(=O)N[C@H](C(=O)N[C@@H](Cc2ccc(O)cc2)C(=O)N[C@@H](CCCNC(=N)N)C(=O)N[C@@H](Cc2ccc(O)cc2)C(=O)O)CSSC1(C)C [Example 200] ({Val(Nα-amidino)}-[Pro(4R-NH2)]IIY[Pen]NR[Dab]T[dDab]KCYRY-OH; disulfide 5-12) | 0 | 0.125 | 0.5 | 0.125 |
|  | CC[C@H](C)[C@H](NC(=O)[C@@H]1C[C@@H](O)CN1C(=O)[C@@H](N)C(C)C)C(=O)N[C@H](C(=O)N[C@@H](Cc1ccc(O)cc1)C(=O)N[C@@H]1C(=O)N[C@@H](CC(N)=O)C(=O)N[C@@H](CCCNC(=N)N)C(=O)N[C@@H](CCCCN)C(=O)N[C@@H]([C@@H](C)O)C(=O)N[C@H](CCN)C(=O)N[C@@H](CCCCN)C(=O)N[C@H](C(=O)N[C@@H](CCN)C(=O)N[C@@H](CCCNC(=N)N)C(=O)N[C@@H](Cc2ccc(O)cc2)C(=O)O)CSSC1(C)C)[C@@H](C)O [Example 167] (HELM PEPTIDE1{V.[Hyp].I.T.Y.[Pen].N.R.K.T.[NCC[C@@H](N[*:1])C(=O)[*:2]].K.C.[Dab].R.Y}$PEPTIDE1,PEPTIDE1,6:R3-13:R3$$$V2.0) | 0 | 0.5 | 0.25 | 0.125 |
|  | CC[C@H](C)[C@H](NC(=O)[C@@H]1C[C@@H](O)CN1C(=O)[C@@H](N)C(C)C)C(=O)N[C@H](C(=O)N[C@@H](Cc1ccc(O)cc1)C(=O)N[C@@H]1C(=O)N[C@@H](CC(N)=O)C(=O)N[C@@H](CCCNC(=N)N)C(=O)N[C@@H](CCN)C(=O)N[C@@H]([C@@H](C)O)C(=O)N[C@H](CCCCN)C(=O)N[C@@H](CCCCN)C(=O)N[C@H](C(=O)N[C@@H](CCN)C(=O)N[C@@H](CCCNC(=N)N)C(=O)N[C@@H](Cc2ccc(O)cc2)C(=O)O)CSSC1(C)C)[C@@H](C)O [Example 151] (HELM PEPTIDE1{V.[Hyp].I.T.Y.[Pen].N.R.[Dab].T.[dK].K.C.[Dab].R.Y}$PEPTIDE1,PEPTIDE1,6:R3-13:R3$$$V2.0) | 0 | 0.5 | 0.25 | 0.25 |
|  | CC[C@H](C)[C@H](NC(=O)[C@@H]1C[C@@H](O)CN1C(=O)[C@@H](N)C(C)C)C(=O)N[C@@H](Cc1ccc(O)cc1)C(=O)N[C@@H](Cc1ccc(O)cc1)C(=O)N[C@@H]1C(=O)N[C@@H](CC(N)=O)C(=O)N[C@@H](CCCNC(=N)N)C(=O)N[C@@H](CCN)C(=O)N[C@@H]([C@@H](C)O)C(=O)N[C@H](CCN)C(=O)N[C@@H](CCCCN)C(=O)N[C@H](C(=O)N[C@@H](CCN)C(=O)N[C@@H](CCCNC(=N)N)C(=O)N[C@@H](Cc2ccc(O)cc2)C(=O)O)CSSC1(C)C [Example 155] (HELM PEPTIDE1{V.[Hyp].I.Y.Y.[Pen].N.R.[Dab].T.[NCC[C@@H](N[*:1])C(=O)[*:2]].K.C.[Dab].R.Y}$PEPTIDE1,PEPTIDE1,6:R3-13:R3$$$V2.0) | 0 | 0.25 | 0.125 | 0.0625 |
| 0.25 | CC[C@H](C)[C@H](NC(=O)[C@@H]1C[C@@H](O)CN1C(=O)[C@@H](N)C(C)C)C(=O)N[C@H](C(=O)N[C@@H](Cc1ccc(O)cc1)C(=O)N[C@@H]1C(=O)N[C@@H](CC(N)=O)C(=O)N[C@@H](CCCNC(=N)N)C(=O)N[C@@H](CCN)C(=O)N[C@@H]([C@@H](C)O)C(=O)N[C@H](CCN)C(=O)N[C@@H](CC(N)=O)C(=O)N[C@H](C(=O)N[C@@H](CCN)C(=O)N[C@@H](CCCNC(=N)N)C(=O)N[C@@H](Cc2ccc(O)cc2)C(=O)O)CSSC1(C)C)[C@@H](C)O [Example 173] (HELM PEPTIDE1{V.[Hyp].I.T.Y.[Pen].N.R.[Dab].T.[NCC[C@@H](N[*:1])C(=O)[*:2]].N.C.[Dab].R.Y}$PEPTIDE1,PEPTIDE1,6:R3-13:R3$$$V2.0; N-terminus and C-terminus assumed) | 0 | 0.5 | 0.25 |  |

— US20230295234A1, “ANTIMICROBIAL PEPTIDOMIMETICS” (SPEXIS AG, priority 2020, published 2023)
